Data on seven compounds can be found in US20250129078A1, “ERBB2 INHIBITORS” (Cogent Biosciences, Inc., priority 2023, published 2025).

One data set concerns the target EGFR WT (Homo sapiens (Human), UniProt P00533). Put plainly: ErbB enzyme assay (CisBio HTRF-KinEASE-TK), EGFR WT. Format: biochemical. The settings on record: ATP at Km (25 μM), 1 h incubation. In a few lines:
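Potency comes from a homogeneous time-resolved fluorescence kinase format measuring tyrosine substrate phosphorylation. Reactions and detection steps each run 1 h at ambient temperature. IC50 values are interpolated from 4-parameter logistic fits of percent-of-control data.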

Data set [1] can be described thus: Blood brain barrier penetration assay in CD-1 mice (short oral absorption model, Kpuu brain). The settings on record: mouse, brain and plasma, male CD-1 mice, 1 h post-dose, Kpuu brain = conc (brain)/conc (plasma) x (fu brain/fu plasma). The format is in vivo. The procedure:
In vitro plasma and brain binding assays were carried out using the equilibrium dialysis method. EDTA-anticoagulated plasma and diluted brain homogenate (1:3 with DPBS pH 7.4) were spiked with 2 μM test compound and dialyzed against an equal volume of 100 μL 100 mM sodium phosphate buffer (pH 7.4) at 37° C. for 4 h in a slowly rotated plate. At the end of the dialysis 50 μL aliquots from the buffer side and matrix side of the dialysis device were taken into new 96-well plates. An equal volume of opposite blank matrix (buffer or matrix) in each sample was added to reach a final volume of 100 μL. All samples were processed by protein precipitation for LC/MS/MS analysis. Unbound fraction (fu) of test compound was calculated by the ratio of buffer side response to the brain homogenate/plasma side response, and unbound fraction (fu,pl and fu,br) of test compound in non-diluted plasma and brain tissue were calculated from measured fu in homogenate and plasma with the following equation: fu,pl or fu,br=1/D/((1/(F/T)-1)+1/D). F is the free compound concentration as determined by the calculated concentration on the buffer side of the membrane and T is the total compound concentration as determined by the calculated concentration on the matrix side of the membrane. D is the dilution factor (D equals 1 for plasma, and 4 for brain).
A short oral absorption model is an in-vivo screening model to identify brain penetration of a compound. Three male CD-1 mice were orally dosed with an appropriate vehicle. At the 1 h timepoint post-dose, blood samples were collected via cardiac puncture, placed into EDTA anti-coagulated tubes, and spiked with 1% 1 mM quinidine (aq). The samples were placed on wet ice until centrifugation at 4000×g for 10 min. Brain tissue was rinsed with saline and the liquid was drained. The brains were weighed and transferred to tubes for homogenization. Each tube contained 1 g tissue, 9 mL buffer (1:2 v/v MeOH:15 mM PBS), and a spike of 1% 1 mM quinidine (aq). All samples were stored at −80° C. prior to LC/MS/MS analysis. Standards were prepared by spiking blank plasma and brain homogenate. Aliquots (10 μL) of sample, calibration standard, quality control, dilution quality control, single blank, and double blank were added to the 96-well plate respectively. Homogenized brain tissue along with plasma samples were precipitated by adding 190 μL cold MeCN containing internal standard (the double blank sample was quenched with 190 L MeCN). The mixture was vortex-mixed for 5 min at 1000 rpm and centrifuged for 10 min at 3220×g, 4° C. […] The free fraction of test compound in biological matrix was determined by using in vitro plasma and brain tissue free fraction. Kpuu brain was calculated by the equation: Kpuu brain=cone (brain)/conc (plasma)×(fu brain/fu plasma).

The target of another data set is EGFR wild type (Homo sapiens (Human), UniProt P00533). The data set can be described thus: ErbB cellular phosphorylation assay (phospho-EGFR ELISA), HEK-293 cells expressing EGFR wild type, EGF stimulated. As to conditions: 1 h treatment. The format is cell-based. The protocol: (§1) HEK-293 cells were engineered to constitutively express ErbB2 mutant L755S or EGFR wild type (constructs obtained from GenScript, Piscataway, NJ). Cells were seeded in poly-D-lysine coated, 96-well plates at a density of 50,000 cells/well in complete medium (DMEM supplemented with 10% fetal bovine serum and G418) and incubated for 24 h at 37° C., 5% CO2 prior to treatment. Cells were treated with compound using three-fold dilutions at final concentrations ranging from […] for 1 h at 37° C., 5% CO2. EGFR-WT cells were stimulated with 500 ng/mL recombinant human EGF (R&D Systems, 236-EG) for an additional 5 min. After compound incubation, medium was removed from the plate, and cells were lysed in buffer containing protease and phosphatase inhibitors ([…]). Cell lysates were analyzed by enzyme-linked immunosorbent assay (ELISA). The ELISAs were performed to measure phosphorylated ErbB2 or phosphorylated EGFR levels, respectively (R&D Systems, DYC-1768, Human Phospho-ErbB2 DuoSet ELISA; DYC1095, Human Phospho-EGFR DuoSet IC ELISA) according to the manufacturer's instructions. Absorbance was measured at 450 nm using a BioTek Cytation 5 plate reader (Agilent, Santa Clara, CA) and IC50 values were calculated using a 4-parameter fit.

The next data set concerns the target ErbB2 V777L (Homo sapiens (Human), UniProt P04626, V777L). Put plainly: ErbB enzyme assay (CisBio HTRF-KinEASE-TK), ErbB2 V777L. The format is biochemical. The method in brief: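 HTRF KinEASE-TK tyrosine-kinase read-out of substrate phosphorylation after a final 1 h at ambient temperature, from the 655/620 nm emission ratio.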
For another data set, the target named is ErbB2 mutant L755S (Homo sapiens (Human), UniProt P04626, L755S). The data set can be described thus: ErbB cellular phosphorylation assay (phospho-ErbB2 ELISA), HEK-293 cells expressing ErbB2 L755S. Format: cell-based. As to conditions: 1 h treatment. The protocol:
as §1, with “Cells” for “HEK-293 cells were engineered to constitutively express ErbB2 mutant L755S or EGFR wild type (constructs obtained from GenScript, Piscataway, NJ). Cells”

Bounds are passed on as bounds.

Chain of EGFR wild type (P00533 25-1210): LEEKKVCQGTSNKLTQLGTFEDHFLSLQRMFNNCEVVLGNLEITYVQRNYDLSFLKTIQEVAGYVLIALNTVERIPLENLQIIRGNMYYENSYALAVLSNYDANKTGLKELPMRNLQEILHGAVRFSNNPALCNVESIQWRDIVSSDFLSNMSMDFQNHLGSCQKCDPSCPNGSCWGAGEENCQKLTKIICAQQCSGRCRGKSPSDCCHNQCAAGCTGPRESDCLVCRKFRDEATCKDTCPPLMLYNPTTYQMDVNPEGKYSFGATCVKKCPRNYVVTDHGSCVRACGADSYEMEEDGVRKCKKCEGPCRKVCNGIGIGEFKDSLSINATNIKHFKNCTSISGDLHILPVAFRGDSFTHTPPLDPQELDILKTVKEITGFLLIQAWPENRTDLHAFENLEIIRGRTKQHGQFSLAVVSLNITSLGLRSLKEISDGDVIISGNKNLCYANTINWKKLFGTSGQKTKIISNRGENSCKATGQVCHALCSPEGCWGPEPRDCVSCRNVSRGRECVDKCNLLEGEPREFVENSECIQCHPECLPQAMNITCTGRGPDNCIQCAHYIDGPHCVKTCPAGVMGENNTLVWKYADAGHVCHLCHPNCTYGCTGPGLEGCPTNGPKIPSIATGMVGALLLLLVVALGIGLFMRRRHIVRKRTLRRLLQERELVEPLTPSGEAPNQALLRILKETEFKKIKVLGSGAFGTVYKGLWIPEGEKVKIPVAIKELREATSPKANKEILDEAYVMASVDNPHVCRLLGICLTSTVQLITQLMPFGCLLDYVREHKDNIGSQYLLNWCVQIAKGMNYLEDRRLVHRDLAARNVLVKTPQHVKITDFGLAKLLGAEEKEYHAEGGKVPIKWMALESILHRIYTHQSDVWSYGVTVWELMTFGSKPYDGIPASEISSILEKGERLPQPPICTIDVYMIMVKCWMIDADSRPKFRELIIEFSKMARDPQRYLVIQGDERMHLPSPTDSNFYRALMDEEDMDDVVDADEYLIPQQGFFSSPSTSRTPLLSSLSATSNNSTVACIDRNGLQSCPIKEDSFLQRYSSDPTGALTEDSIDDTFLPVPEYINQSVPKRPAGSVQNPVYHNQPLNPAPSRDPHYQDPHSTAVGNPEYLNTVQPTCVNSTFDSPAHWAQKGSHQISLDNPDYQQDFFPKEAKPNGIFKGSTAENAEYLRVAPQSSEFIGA
Chain of EGFR WT (P00533 25-1210): as above
Chain of ErbB2 V777L (P04626 23-1255 V777L): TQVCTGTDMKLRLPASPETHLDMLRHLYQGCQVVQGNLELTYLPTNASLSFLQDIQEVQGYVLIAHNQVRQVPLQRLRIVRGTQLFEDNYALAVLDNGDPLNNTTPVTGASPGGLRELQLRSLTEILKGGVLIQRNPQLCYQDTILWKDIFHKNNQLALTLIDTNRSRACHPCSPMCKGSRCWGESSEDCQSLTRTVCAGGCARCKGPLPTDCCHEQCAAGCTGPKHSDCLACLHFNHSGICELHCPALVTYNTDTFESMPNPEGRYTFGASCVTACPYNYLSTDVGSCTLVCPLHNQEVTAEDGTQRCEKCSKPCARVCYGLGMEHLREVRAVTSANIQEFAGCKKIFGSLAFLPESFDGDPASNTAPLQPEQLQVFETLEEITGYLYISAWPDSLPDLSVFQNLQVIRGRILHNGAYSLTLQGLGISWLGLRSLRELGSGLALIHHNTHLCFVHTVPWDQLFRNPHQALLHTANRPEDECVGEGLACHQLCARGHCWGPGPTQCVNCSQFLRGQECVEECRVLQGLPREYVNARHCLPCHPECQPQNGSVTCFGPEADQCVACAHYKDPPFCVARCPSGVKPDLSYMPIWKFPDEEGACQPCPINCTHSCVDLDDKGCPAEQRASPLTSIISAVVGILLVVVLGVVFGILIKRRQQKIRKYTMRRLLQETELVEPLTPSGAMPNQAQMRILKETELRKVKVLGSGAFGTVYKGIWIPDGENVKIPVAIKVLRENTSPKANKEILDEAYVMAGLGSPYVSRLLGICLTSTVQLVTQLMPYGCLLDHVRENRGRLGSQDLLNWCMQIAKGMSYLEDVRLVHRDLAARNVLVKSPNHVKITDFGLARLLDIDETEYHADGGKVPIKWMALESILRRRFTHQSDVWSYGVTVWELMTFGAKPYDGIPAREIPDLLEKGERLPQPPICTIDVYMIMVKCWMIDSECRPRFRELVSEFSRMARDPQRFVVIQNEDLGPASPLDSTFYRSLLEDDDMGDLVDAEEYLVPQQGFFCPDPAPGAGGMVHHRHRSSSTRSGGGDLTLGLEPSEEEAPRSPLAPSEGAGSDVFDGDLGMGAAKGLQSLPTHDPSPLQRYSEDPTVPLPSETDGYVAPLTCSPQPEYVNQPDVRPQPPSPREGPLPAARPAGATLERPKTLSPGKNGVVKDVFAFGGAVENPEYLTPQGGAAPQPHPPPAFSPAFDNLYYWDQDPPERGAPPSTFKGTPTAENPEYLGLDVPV
Chain of ErbB2 mutant L755S (P04626 23-1255 L755S): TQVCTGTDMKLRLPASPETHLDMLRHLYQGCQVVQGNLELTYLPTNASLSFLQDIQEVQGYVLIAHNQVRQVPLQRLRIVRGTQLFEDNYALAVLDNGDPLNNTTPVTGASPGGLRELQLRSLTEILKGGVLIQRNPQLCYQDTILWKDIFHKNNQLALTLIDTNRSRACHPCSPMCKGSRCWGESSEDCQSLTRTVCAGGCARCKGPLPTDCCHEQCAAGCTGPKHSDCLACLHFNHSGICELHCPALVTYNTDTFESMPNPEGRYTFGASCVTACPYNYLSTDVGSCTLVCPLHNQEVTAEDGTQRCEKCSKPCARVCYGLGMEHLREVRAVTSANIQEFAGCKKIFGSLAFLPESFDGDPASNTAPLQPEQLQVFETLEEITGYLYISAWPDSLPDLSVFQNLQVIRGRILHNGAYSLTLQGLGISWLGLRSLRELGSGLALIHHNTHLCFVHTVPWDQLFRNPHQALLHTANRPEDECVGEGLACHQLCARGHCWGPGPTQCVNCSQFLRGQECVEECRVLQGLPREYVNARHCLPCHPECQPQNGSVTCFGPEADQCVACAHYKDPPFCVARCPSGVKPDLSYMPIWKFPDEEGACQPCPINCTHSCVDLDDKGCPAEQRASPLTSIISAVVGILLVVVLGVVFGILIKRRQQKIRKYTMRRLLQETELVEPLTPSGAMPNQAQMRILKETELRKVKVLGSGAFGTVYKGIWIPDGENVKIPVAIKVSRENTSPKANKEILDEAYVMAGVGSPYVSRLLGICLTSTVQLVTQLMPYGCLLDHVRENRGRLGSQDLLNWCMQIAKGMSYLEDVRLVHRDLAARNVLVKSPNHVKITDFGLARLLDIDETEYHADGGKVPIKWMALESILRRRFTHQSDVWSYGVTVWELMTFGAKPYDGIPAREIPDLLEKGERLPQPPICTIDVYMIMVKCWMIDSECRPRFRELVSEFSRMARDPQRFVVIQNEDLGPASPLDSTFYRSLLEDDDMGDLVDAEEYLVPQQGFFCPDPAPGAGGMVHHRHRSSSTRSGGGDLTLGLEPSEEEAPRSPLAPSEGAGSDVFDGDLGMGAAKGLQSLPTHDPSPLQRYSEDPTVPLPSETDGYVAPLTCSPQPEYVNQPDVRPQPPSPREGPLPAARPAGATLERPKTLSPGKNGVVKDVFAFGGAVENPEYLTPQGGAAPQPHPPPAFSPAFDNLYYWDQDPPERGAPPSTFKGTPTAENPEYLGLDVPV

As to `C=CC(=O)N1CCN(c2ncc3ncnc(Nc4ccc(Oc5cnc6c(c5)ncn6C)c(C)c4)c3n2)CC1` [Compound 235, 1-(4-(8-((3-methyl-4-((3-methyl-3H-imidazo[4,5-b]pyridin-6-yl)oxy)phenyl)amino)pyrimido[5,4-d]pyrimidin-2-yl)piperazin-1-yl)prop-2-en-1-one], at EGFR WT, the IC50 was 0.1 to 0.5 µM. Further, the Kp uu at 1 h in data set [1] was 0.04.
In the case of `C=CC(=O)N1CCN(c2ncc3ncnc(Nc4ccc(Oc5ccc6c(c5)ncn6C)c(C)c4)c3n2)CC1` [Analog of compound 5, reference compound], in data set [1], the Kp uu at 1 h is 0.04.
Take `C=CC(=O)N1CCN(c2ncc3ncnc(Nc4ccc(Oc5ccc6c(c5)nnn6C)c(C)c4)c3n2)CC1` [Compound 5, 1-(4-(8-((3-methyl-4-((1-methyl-1H-benzo[d][1,2,3]triazol-5-yl)oxy)phenyl)amino)pyrimido[5,4-d]pyrimidin-2-yl)piperazin-1-yl)prop-2-en-1-one]: the half-maximal inhibitory concentration (IC50) on EGFR WT lay in the range of 0.1 to 0.5 µM. In data set [1], this compound displayed a Kp uu at 1 h of 0.22.
Regarding `C=CC(=O)N1CCN(c2ncc3ncnc(Nc4ccc(Oc5cc(F)c6c(c5)nnn6C)c(C)c4F)c3n2)CC1` [Compound 33, 1-(4-(8-((2-fluoro-4-((7-fluoro-1-methyl-1H-benzo[d][1,2,3]triazol-5-yl)oxy)-3-methylphenyl)amino)pyrimido [5,4-d]pyrimidin-2-yl)piperazin-1-yl)prop-2-en-1-one], the half-maximal inhibitory concentration (IC50) on EGFR wild type is ≥ 5 µM; on EGFR WT, < 0.05 µM; on ErbB2 V777L it was 0.05 to 0.1 µM; against ErbB2 mutant L755S, < 0.1 µM.
The like results for `CC#CC(=O)N1CCN(c2ncc3ncnc(Nc4ccc(Oc5ccc6c(c5)nnn6C)c(C)c4)c3n2)CC1` [Compound 55, 1-(4-(8-((3-methyl-4-((1-methyl-1H-benzo[d][1,2,3]triazol-5-yl)oxy)phenyl)amino)pyrimido [5,4-d]pyrimidin-2-yl)piperazin-1-yl) but-2-yn-1-one] were, in that order, ≥ 5 µM, 0.5 to 1 µM, 0.1 to 0.5 µM and 0.1 to 0.5 µM.
Taken in the same sequence, the figures for `C=CC(=O)N1C2CC1CN(c1ccc3ncnc(Nc4ccc(Oc5ccc6c(c5)nnn6C)c(C)c4)c3n1)C2` [Compound 93, 1-(3-(4-((3-methyl-4-((1-methyl-1H-benzo[d][1,2,3]triazol-5-yl)oxy)phenyl)amino)pyrido[3,2-d]pyrimidin-6-yl)-3,6-diazabicyclo[3.1.1]heptan-6-yl)prop-2-en-1-one] were ≥ 5 µM, 0.1 to 0.5 µM, 0.05 to 0.1 µM and < 0.1 µM.
With `C=CC(=O)N1CCN(c2ncc3ncnc(Nc4ccc(Oc5cc(F)c6c(c5)ncn6C)c(C)c4)c3n2)CC1` [Compound 64, 1-(4-(8-((4-((7-fluoro-1-methyl-1H-benzo[d]imidazol-5-yl)oxy)-3-methylphenyl)amino)pyrimido[5,4-d]pyrimidin-2-yl)piperazin-1-yl)prop-2-en-1-one], the IC50 against EGFR WT and against ErbB2 V777L was < 0.05 µM throughout. The Kp uu at 1 h in data set [1] is 0.12.
